# Experimental data: patent US20020169364A1, “Brainstem and limbic disorder (BALD)” (priority 2000, published 2002)
# Counter-ions that a name gives are not always drawn.
# Test: Clinical use in treatment protocol of the BALD syndrome
# Assay type: in vivo
# Conditions: for clinical outcome in treatment of the BALD syndrome: patients with BALD syndrome, core treatment steps (calcium channel blocker, anti-viral/anti-fungal, chelating agent); for clinical outcome, pulmonary problems: BALD patients with pulmonary problems (restrictive lung disease)
# Source text: The treatment protocol consists of ruling in or out of the BALD syndrome then treatment of the core pathology of the syndrome if present. This consists of treatment of the most acute aspects of the BALD syndrome followed by more conservative treatments of the more chronic symptoms or pathology. If diagnosis progresses to brainstem or other neuron damage with significant inflammation the treatment consists of immediate inflammation reduction and stabilization of the immune system. This is followed by conservative treatments as indicated in the diagnosis of the disorder.
# The treatment proceeds in steps.
# Step one in the treatment of the disorder would start with drugs that are known to block calcium intake channels of neurons. […] The usual dosage can be 30 mg. three times daily more or less in the clinical judgment of the physician.
# Step three in the treatment of a BALD syndrome involving viral infection to any degree is to administer anti-viral and anti-fungal drugs to the patient. […] This is a synthetic acyclic purine nucleoside analog.
# This Is a synthetic broad spectrum bis-trazole antifungal agent. […] This is a synthetic trazole antifungal agent with the chemical name of itraconazole.
# Step seven is to administer a chelating agent to the patient to eliminate toxic heavy metals from the system.
# Azulfadine should be started for patients with irritable bowel syndrome.
SMILES,clinical outcome in treatment of the BALD syndrome,also measured
"CC(C)[C@H](N)C(=O)OCCOCn1cnc2c(=O)[nH]c(N)nc21 [Valtrex, valacyclovir hydrochloride]",clinically successful,
"CC(C)(O)c1ccccc1CC[C@@H](SCC1(CC(=O)O)CC1)c1cccc(/C=C/c2ccc3ccc(Cl)cc3n2)c1 [Singulair, sodium montelukast]",,"clinical outcome, pulmonary problems: Clinical success"
"O=C(O)c1cc(/N=N/c2ccc(S(=O)(=O)Nc3ccccn3)cc2)ccc1O [Azulfadine, sulfasalazine]",,"clinical outcome, irritable bowel syndrome (BALD patients with irritable bowel syndrome): successful drug in clinical usage"
"Nc1nc2c(ncn2COCCO)c(=O)[nH]1 [Acyclovir, acycloguanosine]",Clinical success,
"O=C1CN=C(c2ccccc2Cl)c2cc([N+](=O)[O-])ccc2N1 [Klonapin, clonazepam]",,"clinical outcome, anti-anxiety (BALD patients, anti-anxiety drug): clinically successful"
"COc1cc(C(=O)NS(=O)(=O)c2ccccc2C)ccc1Cc1cn(C)c2ccc(NC(=O)OC3CCCC3)cc12 [Accolate, zafirlukast]",,"clinical outcome, pulmonary problems: clinically successful"
"O=C([O-])CN(CCN(CC(=O)[O-])CC(=O)O)CC(=O)O.[Na+].[Na+] [EDTA, edate disodium]",Clinical success,
"OC(Cn1cncn1)(Cn1cncn1)c1ccc(F)cc1F [difulcan, fluconazole]",good clinical results,
